Experiment [1] deals with Human alphaherpesvirus 1. The experiment in a line: Antiviral activity against HSV1 10 ug/10^5 cells by plaque infectivity assay. It is filed as functional, organism-based.
The test system of experiment [2] is Human alphaherpesvirus 1. The experiment is described as follows: Antiviral activity against HSV1 20 ug/10^5 cells by plaque infectivity assay. It counts as functional, organism-based.
In experiment [3] the test system is Hepatovirus A. The experiment in a line: Antiviral activity against HAV 10 ug/10^5 cells by plaque infectivity assay. It counts as functional, organism-based.
For experiment [4], the system named is Hepatovirus A. The experiment is described as follows: Antiviral activity against HAV 20 ug/10^5 cells by plaque infectivity assay.

Calls of active or inactive are those of the source. The rule behind the calls is not given here.

On to `COC(CSc1ncnc2c1cnn2-c1ncnc2sc3c(c12)-c1ccccc1CC3)OC`, for which, in the experiment with Human alphaherpesvirus 1 [1], the outcome was Active.

Regarding `COCCSc1ncnc2c1cnn2-c1ncnc2sc3c(c12)-c1ccccc1CC3`, the outcome with Human alphaherpesvirus 1 [2] and in the experiment with Human alphaherpesvirus 1 [1] was Active.

Take `N#Cc1cnn(-c2ncnc3sc4c(c23)-c2ccccc2CC4)c1NC(=S)NC(=O)c1ccccc1`: the outcome with Human alphaherpesvirus 1 [2], in the experiment on Hepatovirus A [3] and in the experiment with Human alphaherpesvirus 1 [1] was Active.

For `CCOC(=O)c1cnn(-c2ncnc3sc4c(c23)-c2ccccc2CC4)c1N`, the result with Hepatovirus A [4] was Active.

In the case of `N#Cc1cnn(-c2ncnc3sc4c(c23)-c2ccccc2CC4)c1N`, the outcome in the experiment on Hepatovirus A [3] and in the experiment with Hepatovirus A [4] was Active.

The values above are taken from ChEMBL document CHEMBL1155891, “Synthesis and antiviral evaluation of some new pyrazole and fused pyrazolopyrimidine derivatives” (Bioorg Med Chem, 2008).
